US20190008870A1, “COMPOSITIONS AND METHODS FOR LIPID METABOLISM DISORDER” (JANSFAT BIOTECHNOLOGY CO., LTD., priority 2016, published 2019)

Experiments:
[1] = Body weight and food intake of mice fed with HFD; format: in vivo
Description: In the experiment, C57BL/6J male mice (21-22 g), after fasting, were fed an HFD as a model of hyperlipidemia for 8 weeks. During the 2 month experiments, mice fasted for one night before the experiment was changed from a standard diet (STD) to an HFD and then the mice were randomly divided into 13 groups, including a protection group, 2 control and 10 treatment groups. Six mice were used in each group. […] Liver from the protection group supplemented with KMUP-1 HCl (1 mg/kg/day) were used to determine the HMG CoA reductase expression. Each group of mice had free access to drinking water from week 1 to week 14. Tap water was used to normalize mineral nutrition.
Within 2 months, the 3 day food intake average for each animal was measured. The weight gain and plasma lipid levels of each group were determined and compared to the non-treatment control group. Mouse blood was collected during the daytime by cardiac puncture followed by centrifugation at 90×g (Benchtop Centrifuge, U.S.A.) to separate the serum, and frozen at −80° C., for biochemical analysis using a Hitachi Clinical Analyzer 7070 (Hitachi High-Technologies Co. Tokyo, Japan). Agents used in the assays were obtained from Merck & Co. (Kenilworth, N.J., U.S.A.). Triglyceride (TG), total cholesterol, HDL cholesterol and LDL cholesterol in mouse serum were measured by methods used in the clinic. To measure the hepatic Triglyceride, isolated liver were cut into small chips.

[2] = system: eNOS; assay: IHC staining of eNOS in epididymal fat pads; format: in vivo, mice; settings: HFD 14 weeks, KMUP-1 2.5 mg/kg/day, Control 50.5
Description: (§1) For IHC of MMP-9/TNFα, HSL/p-HSL/ATGL and eNOS/IL-10, antigen retrieval of de-paraffinated sections was performed in Dako target retrieval solution, pH 9.0, in a vegetable steamer followed by the quenching of endogenous peroxidase activity with 3.0% H2O2 in methanol. Sections were then incubated with specific primary antibodies overnight at 4° C. in a humidified chamber. The antibodies used included rabbit polyclonal anti-eNOS (1:50 dilution) (Abcam, Cambridge, UK) or rabbit monoclonal anti-cleaved caspase-3 (1:50 dilution) (Cell Signaling, U.S.A.). The sections were then examined using a DAKO REAL EnVision™ Detection System kit (DAKO, Carpinteria, Calif., U.S.A.) and counterstained with hematoxylin. Images were obtained through a Nikon Eclipse TE200-S microscope.

[3] = system: HSL; assay: IHC staining of HSL in epididymal fat pads; format: in vivo, mice; settings: HFD 14 weeks, KMUP-1 2.5 mg/kg/day, Control 34
Description: as §1

[4] = system: TNF-α; assay: IHC staining of TNF-α in epididymal fat pads; format: in vivo, mice; settings: HFD 14 weeks, KMUP-1 2.5 mg/kg/day, Control 36
Description: as §1

[5] = system: eNOS; assay: Expression of eNOS (Table 12); settings: Control group 100 (%)
[6] = system: PDE-5A; assay: Expression of PDE-5A (Table 12); settings: Control group 100 (%)
[7] = system: ROCK II; assay: Expression of ROCK II (Table 12); settings: Control group 100 (%)
[8] = system: LDLRs; assay: IHC staining of LDLRs in livers of HFD mice; format: in vivo; settings: HFD animals, protection and treatment groups
[9] = system: LDLRs; assay: Fluorescence staining of LDLRs in HepG2 cells; format: cell-based
Description: HepG2 cells were used to determine the cellular protein expression of LDLRs in the presence of exogenous LDL (500 μg/mL). […] All images were collected and analyzed by scanning with Nikon Eclipse TE200-S microscope (Tokyo, Japan).

[10] = system: PKA; assay: PKA expression/immunoreactivity in HepG2 cells; format: cell-based
Description: (§2) HepG2 cells were treated with various concentrations of targeted drugs for 24 hours. Reactions were terminated by washing twice with cold PBS, and the cells were then harvested. Proteins in the whole-cell lysate were homogenized in an ice-cold lysis buffer and a protease inhibitor (Sigma-Aldrich, St. Louis, Mo., U.S.A.). The homogenate was centrifuged at 90,000×g for 15 minutes at 4° C., and supernatant was recovered as the total cellular protein. Cytosolic and membrane fractions of HepG2 cells were prepared using a CNM (Cytosol Nuclear Membrane) compartmental protein extraction kit (BioChain Institute Inc., Hayward, Calif., U.S.A.) according to the manufacturer's instructions. All of the fractionated protein solutions were stored at −80° C. until analysis. To measure the expression levels of proteins by drugs, the total cell protein was extracted after incubation with treatments for 24 hours and then Western blotting analysis was performed as described previously.
(§3) To determine that KMUP-1 or targeted drugs can affect PKA, we incubated KMUP-1 (10^−4, 10^−5, 10^−6 M) or targeted drugs with HepG2 cells for 24 hours to measure the protein expressions of PKA/PKG by Western blotting or PKA/PKG and HSL immunoreactivities by fluorescence staining, combined with image scanning in the absence or presence of oxidized LDL (200 μg/mL).

[11] = system: PKG; assay: PKG expression/immunoreactivity in HepG2 cells; format: cell-based
Description: as §2, §3

[12] = HepG2 cells, 10, 20, 40 μM, in the presence of LDL (500 μg/mL)

SMILES: Cn1c(=O)c2c(ncn2CCN2CCN(c3ccccc3Cl)CC2)n(C)c1=O [KMUP-1, 7-[2-[4-(2-chlorophenyl)piperazinyl]ethyl]-1,3-dimethylxanthine]
- body-weight gain ([1]; HFD mice 8 weeks, KMUP-1 HCl 2.5, 5 mg/kg p.o., simvastatin 5 mg/kg p.o., compared to the control HFD group (p<0.05)): reduced
- final BW (Body weight) ([1]; HFD mice, 2.5 mg/kg p.o.): 25.7 ± 0.7 g
- final BW (Body weight) ([1]; HFD mice, 5 mg/kg p.o.): 24.3 ± 0.5 g
- body weight ([1]; HFD mice, drinking 2.5 mg/200 ml water, protection and treatment groups): decreased
- Immunorespons percentages, eNOS [2]: 39%
- Immunorespons percentages, HSL [3]: 57%
- Immunorespons percentages, TNF-α [4]: 22%
- eNOS expression [5]: 155.16 ± 14.8%
- PDE-5A expression [6]: 64.5 ± 4.5%
- ROCK II expression [7]: 42.5 ± 6.3%
- hepatic LDLRs (IHC staining) [8]: increased
- LDLR (green fluorescence) expression ([9]; 24 hours, KMUP-1 10^−6, 10^−5, 10^−4 M, simvastatin 10^−5 M): increased
- LDLR fluorescence at high concentration ([9]; concentrations >10^−4 M, near the viability range): decline in fluoresence
- oxLDL-induced reduction of PKA expression ([10]; HepG2 cells, 1, 10, 100 μM, 200 μg/mL oxLDL): reversed
- PKA protein expression [10, 12]: could not significantly affect
- PKA immunoreactivity (green fluorescence) ([10]; HepG2 cells, 24 hours): increased
- PKG immunoreactivity ([11]; HepG2 cells (data not shown)): not significantly affected
- expression of PKG [11, 12]: increased
